# Experimental data as given in US9051417B2, “Method for solubilizing carboxylic acid-containing compound in hydrocarbon solvent” (Dow Global Technologies LLC, priority 2013, dated 2015).
# Experiment: Solubility measurement of acid chlorides containing one carboxylic acid moiety in hydrocarbon solvents with and without trialkylphosphate additives (saturated solutions, proton NMR)
# Type: physicochemical
# Conditions: saturated solution
# Source text: Many embodiments of the invention have been described and in some instances certain embodiments, selections, ranges, constituents, or other features have been characterized as being “preferred.” Characterizations of “preferred” features should in no way be interpreted as deeming such features as being required, essential or critical to the invention. For purposes of this description, the terms “acyl halide” and “acid halide” have the same meaning. While much of the description has focused upon acyl chlorides, non-chloride halides are also included. The term “solubility limit” refers to the point at which no additional amount of a constituent, (e.g. water, reaction product, hydrocarbon reactant) is miscible or dissolvable with the hydrocarbon solvent or solution, as measured at 20° C. and 101 kPa. Unless otherwise stated, all solubility related parameters are determined at 20° C. and 101 kPa.
# Solubility measurement of acid chlorides containing one carboxylic acid moiety in hydrocarbon solvents with and without solubility enhancing additives:
# Saturated solutions of sample acid chlorides containing carboxylic acid moieties were prepared in hydrocarbon solvents with and without the presence of trialkylphosphate additives by adding more sample than will dissolve in the solvent and decanting the saturated solvent from the undissolved precipitate. The saturated solutions were evaluated by proton NMR. Deuterated Isopar L is not commercially available, thus all spectra were acquired in the unlocked condition using regular Isopar L. Because of the very high proton concentration in running a non-deuterated solvent, 60° pulse and minimum receiver gain were used to avoid receiver overflow. A relaxation delay of 8 seconds was used for complete signal recovery between scans. The spectral width was set to 20 ppm and the center of the spectrum was set to 5 ppm. Depending on the concentrations of the species of interest, 64-256 scans were used for signal averaging.
# The area of the Isopar L peaks between 0.75 and 2.0 ppm were measure and divided by 26 (which represents the average H's present in Isopar L, assuming a molecular formula of C12H26) and multiplied by 170.33, the formula weight of C12H26. The peak area of the aromatic acid chlorides containing carboxylates are between 8.9-9.2 ppm and are well resolved from the Isopar solvent. The integration of one of the assigned peaks (for example, the triplet of mono-hydrolyzed TMC at 9.0 ppm represents a single proton) was used to determine the relative weight of the sample in the Isopar L solvent. The integration is divided by the number of protons it represents and multiplied by the formula weight of the compound it represents (for example, the triplet of mono-hydrolyzed TMC at 9.0 ppm would be divided by 1 and multiplied by 247.03 g/mol). The wt % of mono-hydrolyzed TMC in the saturated solution is determined by dividing the value obtained for mono-hydrolyzed TMC by the value obtained for Isopar L.
# In the presence of tributylphosphate (TBP), the Isopar L value must be corrected since a few protons of TBP cannot be resolved from the Isopar L peaks. This is done by integrating the —OCH2-protons of TBP which are well resolved at ˜4.05 ppm, dividing this value by 6 (for 6 protons). This area value is then multiplied by 21 (represents the three —CH2CH2CH3 that are unresolved from the Isopar L peak) and subtracted from the peak area of Isopar L.
# [1] = solvent Isopar L, 20° C. and 101 kPa
Solubility (solvent Isopar L + 0.47 wt % TBP) [wt %],Solubility [1] [wt %],Solubility (solvent 80/20 Isopar L/Toluene + 0.25 wt % TBP) [wt %],Solubility (solvent 80/20 Isopar L/Toluene) [wt %],Solubility (solvent Isopar L + 1 wt % TEHP) [wt %],Solubility (solvent Isopar L + 1 wt % TEP) [wt %],Compound
0.29,<0.02,,,,,O=C(O)c1cccc(C(=O)Cl)c1 [mhIPC]
,0.02,0.29,0.05,0.11,0.2,"O=C(O)c1cc(C(=O)Cl)cc(C(=O)Cl)c1 [mhTMC, mono-hydrolyzed trimesoyl chloride]"
